These molecules were tested against T1, MEK1 (Homo sapiens, UniProt Q02750, DEL33-52/S218E/S222D) (assay: MEK1 inhibition, fluorescence polarization (IMAP) assay with ERK1 and FI-Erktide). Conditions: 1 nM MEK1, 25 nM ERK1, 400 μM ATP, 22 min at room temperature; read-out: pIC50 (nM); IC50 of Exemplified Compounds against MEK1 (converted).
T1 construct: 6-histidine tag (N); made in house; host or cells: MEK1: baculovirus / Spodoptera frugiperda Sf9; ERK1: E. coli
T1 sequence (Q02750 with tags, fused parts or gaps DEL33-52/S218E/S222D): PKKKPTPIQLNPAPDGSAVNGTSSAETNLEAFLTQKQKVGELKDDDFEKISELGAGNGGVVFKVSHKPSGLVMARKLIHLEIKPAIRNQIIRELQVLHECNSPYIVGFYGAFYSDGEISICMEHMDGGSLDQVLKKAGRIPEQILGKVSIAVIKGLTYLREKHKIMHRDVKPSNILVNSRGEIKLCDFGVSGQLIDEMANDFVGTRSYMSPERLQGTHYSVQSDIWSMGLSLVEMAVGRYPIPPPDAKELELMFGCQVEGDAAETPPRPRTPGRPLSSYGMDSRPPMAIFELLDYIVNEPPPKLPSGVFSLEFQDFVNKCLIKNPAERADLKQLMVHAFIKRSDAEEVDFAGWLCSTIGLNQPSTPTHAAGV
Type: biochemical
Protocol: […] […] […] SEQ ID NO: 2 is the DNA sequence that was used to encode SEQ ID NO: 1.
The inhibitory properties of compounds relative to MEK1 or MEK2 may be determined using a black 384-well-plate format under the following reaction conditions: 50 mM HEPES pH 7.3, 10 mM NaCl, 10 mM MgCl2, 0.01% Brij35, 1 nM MEK1 or 4 nM MEK2, 25 nM ERK1, 400 μM ATP, 500 nM IPTTPITTYFFFK-5FAM-COOH (FI-Erktide), and 1% DMSO. Reaction product is determined quantitatively by fluorescent polarization using progressive IMAP beads from Molecular Devices.
The assay reaction may be initiated as follows: 2 μl of the mixture of 1.5 μM FI-Erktide and 75 nM ERK with 2 μl of inhibitor (2 fold serial dilutions for 11 data points for each inhibitor) containing 3% DMSO were added to each well of the plate, followed by the addition of 2 μl of the mixture of 3 nM MEK1 or 12 nM MEK2and 1200 μM ATP to initiate the reaction (final enzyme concentration was 1 nM for MEK1 or 4 nM for MEK2). The reaction mixture may then be incubated at room temperature for 22 min, and quenched and developed by addition of 20 μl of 1:200 dilution of progressive IMAP beads (Molecular Devices) in 80% buffer A, 20% buffer B and 0.003% Tween 20. Fluorescence polarization of the resulting reaction mixtures may be measured after a 1 hour incubation at room temperature.
IC50 values may be calculated by non-linear curve fitting of the compound concentrations and fluorescence polarization signal to the standard IC50 equation.
With Cn1c(=O)c(F)c(Nc2ccc(I)cc2F)c2c(=O)n(C[C@@H](O)CO)ccc21 [Example 3R, (R)-6-(2,3-dihydroxypropyl)-3-fluoro-4-(2-fluoro-4-iodophenylamino)-1-methyl-1,6-naphthyridine-2,5(1H,6H)-dione] the IC50 was less than 100 nM.
For Cn1c(=O)cc(Nc2ccc(I)cc2F)c2c(=O)n(C[C@@H](O)CO)ccc21 [Example 1R, (R)-6-(2,3-dihydroxypropyl)-4-(2-fluoro-4-iodophenylamino)-1-methyl-1,6-naphthyridine-2,5(1H,6H)-dione], the IC50 was less than 100 nM.
Cn1c(=O)cc(Nc2ccc(I)cc2F)c2c(=O)n(C[C@H](O)CO)ccc21 [Example 1S, (S)-6-(2,3-dihydroxypropyl)-4-(2-fluoro-4-iodophenylamino)-1-methyl-1,6-naphthyridine-2,5(1H,6H)-dione] was tested, and the IC50 was less than 100 nM.
For C#Cc1ccc(Nc2c(F)c(=O)n(C)c3ccn(C[C@@H](O)CO)c(=O)c23)c(F)c1 [Example 5, (R)-6-(2,3-dihydroxypropyl)-4-(4-ethynyl-2-fluorophenylamino)-3-fluoro-1-methyl-1,6-naphthyridine-2,5(1H,6H)-dione], the IC50 was less than 100 nM.
With Cn1c(=O)c(F)c(Nc2ccc(Br)cc2F)c2c(=O)n(C[C@@H](O)CO)ccc21 [Example 4, (R)-4-(4-bromo-2-fluorophenylamino)-6-(2,3-dihydroxypropyl)-3-fluoro-1-methyl-1,6-naphthyridine-2,5(1H,6H)-dione] the IC50 was less than 100 nM.
Cn1c(=O)cc(Nc2ccc(Br)cc2F)c2c(=O)n(CC(O)CO)ccc21 (racemic) [Example 2, 4-(4-bromo-2-fluorophenylamino)-6-(2,3-dihydroxypropyl)-1-methyl-1,6-naphthyridine-2,5(1H,6H)-dione] gave an IC50 of less than 100 nM.
For Cn1c(=O)cc(Nc2ccc(C3CC3)cc2F)c2c(=O)n(C[C@@H](O)CO)ccc21 [Example 6, (R)-4-(4-cyclopropyl-2-fluorophenylamino)-6-(2,3-dihydroxypropyl)-1-methyl-1,6-naphthyridine-2,5(1H,6H)-dione], the IC50 was no less than 100 nM.
For Cn1c(=O)c(F)c(Nc2ccc(I)cc2F)c2c(=O)n(C[C@H](O)CO)ccc21 [Example 3S, (S)-6-(2,3-dihydroxypropyl)-3-fluoro-4-(2-fluoro-4-iodophenylamino)-1-methyl-1,6-naphthyridine-2,5(1H,6H)-dione], the IC50 was less than 100 nM.
For Cn1c(=O)cc(Nc2ccc(Br)cc2F)c2c(=O)n(C[C@@H](O)CO)ccc21 [Example 2R, (R)-4-(4-bromo-2-fluorophenylamino)-6-(2,3-dihydroxypropyl)-1-methyl-1,6-naphthyridine-2,5(1H,6H)-dione], the IC50 was no less than 100 nM.
Work on Cn1c(=O)cc(Nc2ccc(Br)cc2F)c2c(=O)n(C[C@H](O)CO)ccc21 [Example 2S, (S)-4-(4-bromo-2-fluorophenylamino)-6-(2,3-dihydroxypropyl)-1-methyl-1,6-naphthyridine-2,5(1H,6H)-dione] yielded an IC50 of less than 100 nM.
